This assay concerns human multiple myeloma cell line, OPM-2. Kind of assay: Cell viability assay (OPM-2 10 FBS), CellTiter-Glo. Type of assay: cell-based. On the procedure: Cell viability assay (OPM-2 10 FBS)
The human multiple myeloma cell line, OPM-2, was cultured in complete growth medium containing RPMI 1640 and 10% fetal bovine serum (FBS). Cells were seeded into 384-well plates at 3000 cells/well density in complete growth medium containing 10% FBS, and incubated for 16 h with serially diluted test compounds in a 37° C. incubator with 5% CO2. Cell viability was tested using CellTiter-Glo® assay (Promega, Madison, Wis.) according to the manufacturer recommendations. Luminescence was determined using an EnVision® Multilabel plate reader 25 min after the addition of detection reagent. IC50 values were then calculated with Xlfit using a logistical 4-parameter fit model in GraphPad Prism (GraphPad Software, San Diego, Calif.) or in Genedata Screener® (Genedata, Basel, Switzerland).
In general terms: Cellular ATP, detected with luciferase, serves as a proxy for viable cell number.

The mark [1] stands for this setting: read-out: OPM-2 10% FBS IC50 IP, OPM-2 cells, 10% FBS, 16 h incubation.

SMILES strings stand for the structures. Read-outs that look alike come from different tables or passages of the source.

As usually defined, the IC50 is the midpoint of a concentration-inhibition curve. Consider `CO[C@@]1(CN2CCN3CCCC[C@H]3C2)/C=C/C[C@H](C)[C@@H](C)S(=O)(=O)NC(=O)c2ccc3c(c2)N(C[C@@H]2CC[C@H]21)C[C@@]1(CCCc2cc(Cl)ccc21)CO3` [Example 79, (1S,3′R,6′R,7′S,8′E,11′S,12′R)-6-chloro-7′-methoxy-11′,12′-dimethyl-7′-((9aS)-octahydro-2H-pyrido[1,2-a]pyrazin-2-ylmethyl)-3,4-dihydro-2H,15′H-spiro[naphthalene-1,22′-[20]oxa[13]thia[1,14]diazatetracyclo [14.7.2.0~3,6~.0~19,24~]pentacosa[8,16,18,24]tetraen]-15′-one 13′,13′-dioxide], for which, where the note is “Homo sapiens, OPM-2, 16 h, read-out: OPM-2 10% FBS IC50 IP, OPM-2 cells, 10% FBS, 16 h incubation”, the IC50 is 245 nM.

As to `C[C@@H]1[C@@H](C)C/C=C/[C@@](O)(C#C[Si](C)(C)C)[C@@H]2CC[C@H]2CN2C[C@@]3(CCCc4cc(Cl)ccc43)COc3ccc(cc32)C(=O)NS1(=O)=O` [Example 100243, (1S,3′R,6′R,7′S,8′E,11′S,12′R)-6-chloro-7′-hydroxy-11′,12′-dimethyl-7′-((trimethylsilyl)ethynyl)-3,4-dihydro-2H,15′H-spiro[naphthalene-1,22′-[20]oxa[13]thia[1,14]diazatetracyclo [14.7.2.0~3,6~.0~19,24~]pentacosa[8,16,18,24]tetraen]-15′-one 13′,13′-dioxide], the IC50 (read-out: OPM-2 10% FBS IC50 IP, OPM-2 cells, 10% FBS, 16 h, CellTiter-Glo) was 8670 nM.

As to `COC(=O)[C@H](NC(=O)C[C@]1(OC)/C=C/C[C@H](C)[C@@H](C)S(=O)(=O)NC(=O)c2ccc3c(c2)N(C[C@@H]2CC[C@H]21)C[C@@]1(CCCc2cc(Cl)ccc21)CO3)[C@@H](C)O` [Example 100581, methyl N-(((1S,3′R,6′R,7′S,8′E,11′S,12′R)-6-chloro-7′-methoxy-11′,12′-dimethyl-13′,13′-dioxido-15′-oxo-3,4-dihydro-2H-spiro[naphthalene-1,22′-[20]oxa[13]thia[1,14]diazatetracyclo [14.7.2.0~3,6~.0~19,24~]pentacosa[8,16,18,24]tetraen]-7′-yl)acetyl)-D-allothreoninate], the IC50 (Homo sapiens, OPM-2, 16 h, read-out: OPM-2 10% FBS IC50 IP, OPM-2 cells, 10% FBS, 16 h, CellTiter-Glo) was 1540 nM.

With `CO[C@]1(CN2CCN3CCS(=O)(=O)C[C@@H]3C2)/C=C/C[C@H](C)[C@@H](C)S(=O)(=O)NC(=O)c2ccc3c(c2)N(C[C@@H]2CC[C@H]21)C[C@@]1(CCCc2cc(Cl)ccc21)CO3` [Example 215], under setting [1], the IC50 was determined as 107 nM.

For the molecule `CO[C@]1(C(=O)N(C)C)/C=C/C[C@H](C)[C@@H](C)S(=O)(=O)NC(=O)c2ccc3c(c2)N(C[C@@H]2CC[C@H]21)C[C@@]1(CCCc2cc(Cl)ccc21)CO3` [Example 177, (1S,3′R,6′R,7′R,8′E,11′S,12′R)-6-chloro-7′-methoxy-N,N, 11′,12′-tetramethyl-15′-oxo-3,4-dihydro-2H-spiro[naphthalene-1,22′-[20]oxa[13]thia[1,14]diazatetracyclo[14.7.2.0-3,6˜.0˜19,24˜]pentacosa[8,16,18,24]tetraene]-7′-carboxamide 13′,13′-dioxide], the IC50 under setting [1] turned out to be 615 nM.

Regarding `C[C@@H]1[C@@H](C)C/C=C/[C@@](O)(CN2CCN3CCOC[C@@H]3C2)[C@@H]2CC[C@H]2CN2C[C@@]3(CCCc4cc(Cl)ccc43)COc3ccc(cc32)C(=O)NS1(=O)=O` [Example 193, (1S,3′R,6′R,7′S,8′E,11′S,12′R)-6-chloro-7′-((9aS)-hexahydropyrazino[2,1-c][1,4]oxazin-8(1H)-ylmethyl)-7′-hydroxy-11′,12′-dimethyl-3,4-dihydro-2H, 15′H-spiro[naphthalene-1,22′-[20]oxa[13]thia[1,14]diazatetracyclo[14.7.2.0-3,6˜.0˜19,24˜]pentacosa[8,16,18,24]tetraen]-15′-one 13′,13′-dioxide], under setting [1], the IC50 came out at 23 nM.

For the origin of these results see patent publication US10821115B2, “Compounds that inhibit Mcl-1 protein” (priority 2017, dated 2020).
